Source: paper doi:10.1101/2022.07.25.501481v1 (biorxiv, 2022)

Biological target: T1, BT4193 (Bacteroides thetaiotaomicron, UniProt Q8A028)
T1 sequence (Q8A028 20-736): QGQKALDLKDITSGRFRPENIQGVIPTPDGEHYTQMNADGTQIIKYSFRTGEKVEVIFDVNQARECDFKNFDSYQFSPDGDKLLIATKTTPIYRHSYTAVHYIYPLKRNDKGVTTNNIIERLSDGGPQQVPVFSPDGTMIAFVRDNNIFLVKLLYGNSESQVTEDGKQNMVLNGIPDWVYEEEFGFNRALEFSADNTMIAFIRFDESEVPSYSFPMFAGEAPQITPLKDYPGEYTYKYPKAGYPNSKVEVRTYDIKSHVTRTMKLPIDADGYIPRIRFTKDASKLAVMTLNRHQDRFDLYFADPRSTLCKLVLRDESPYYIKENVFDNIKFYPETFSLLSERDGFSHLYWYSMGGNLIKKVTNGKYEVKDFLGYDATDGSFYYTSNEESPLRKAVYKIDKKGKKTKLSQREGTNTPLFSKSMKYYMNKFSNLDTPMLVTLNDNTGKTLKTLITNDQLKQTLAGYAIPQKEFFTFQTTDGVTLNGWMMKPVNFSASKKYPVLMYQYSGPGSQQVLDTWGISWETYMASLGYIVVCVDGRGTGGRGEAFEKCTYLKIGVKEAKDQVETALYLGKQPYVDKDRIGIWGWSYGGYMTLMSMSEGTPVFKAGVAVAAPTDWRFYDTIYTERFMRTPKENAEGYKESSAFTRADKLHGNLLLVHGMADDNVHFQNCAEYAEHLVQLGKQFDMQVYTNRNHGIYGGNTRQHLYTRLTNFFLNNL
Test: GP-AMC cleavage fluorescence, dose-response four-parameter fit
Assay type: biochemical

IC50 [nM]	SMILES
10.3 ± 0.7	N#C[C@@H]1C[C@@H]2C[C@@H]2N1C(=O)[C@@H](N)C12CC3CC(CC(O)(C3)C1)C2 [saxagliptin]
12.4 ± 0.1	CC(C)[C@H](N)C(=O)N1CCC[C@H]1B(O)O [talabostat]
445 ± 23	CC#CCn1c(N2CCC[C@@H](N)C2)nc2c1c(=O)n(Cc1nc(C)c3ccccc3n1)c(=O)n2C [linagliptin]
2150 ± 162	N[C@@H](CC(=O)N1CCn2c(nnc2C(F)(F)F)C1)Cc1cc(F)c(F)cc1F [sitagliptin]
